# Target: B-Raf (V600E)-kinase (Homo sapiens (Human), UniProt P15056, V600E)
# Experiment: Kinase test B-RAF (V600E)
# Type: biochemical
# Details: not given
# Experimental: Kinase Test B-RAF (V600E)
# In a dilution series 10 μL of test substance solution are placed in a multiwell plate. The dilution series is selected so that generally a range of concentrations of 2 μM to 0.119 nM or 0.017 nM is covered. If necessary the initial concentration of 2 μM is changed to 50 μM, 10 μM or 0.4 μM or 0.2857 μM and further dilution is carried out accordingly. The final concentration of DMSO is 5%. 10 μL of the B-Raf (V600E)-kinase solution are pipetted in (containing 0.5 ng B-Raf (V600E)-kinase in 20 mM Tris-HCl pH 7.5, 0.1 mM EDTA, 0.1 mM EGTA, 0.286 mM sodium orthovanadate, 10% glycerol, 1 mg/mL bovine serum albumin, 1 mM dithiothreitol) and the mixture is incubated for 24 h at RT under with shaking. The kinase reaction is started by the addition of 20 μL ATP solution [final concentration: 250 μM ATP, 30 mM Tris-HCl pH 7.5, 0.02% Brij, 0.2 mM sodium orthovanadate, 10 mM magnesium acetate, 0.1 mM EGTA, phosphatase cocktail (Sigma, # P2850, dilution recommended by the manufacturer), 0.1 mM EGTA] and 10 μL MEK1 solution [containing 50 ng biotinylated MEK1 (prepared from purified MEK1 according to standard procedure, e.g. with EZ-Link Sulpho-NHS-LC-Biotin reagent, Pierce, #21335) and carried out for 60 min at RT with constant shaking. The reaction is stopped by the addition of 12 μL of a 100 mM EDTA solution and incubation is continued for a further 5 min. 55 μL of the reaction solution are transferred into a streptavidin-coated plate (e.g. Streptawell HighBond, Roche, #11989685001) and shaken gently for 1 h at RT, in order to bind biotinylated MEK1 to the plate. After elimination of the liquid the plate is washed five times with 200 μL of 1×PBS and 100 μL solution of primary antibody plus europium-labelled secondary antibody [Anti Phospho-MEK (Ser217/221), Cell Signaling, #9121 and Eu-N1 labeled goat-anti-rabbit antibody, Perkin Elmer, # AD0105], the primary antibody is diluted 1:2000 and the secondary antibody is diluted to 0.4-0.5 μg/mL in Delfia Assay Buffer (Perkin Elmer, #1244-111). After 1 h shaking at RT the solution is poured away and washed five times with 200 μL Delfia Wash Buffer (Perkin Elmer, #4010-0010/#1244-114). After the addition of 200 μL Enhancement Solution (Perkin Elmer, #4001-0010/#1244-105) the mixture is shaken for 10 min at RT and then measured in a Wallac Victor using the program “Delfia Time Resolved Fluorescence (Europium)”. IC50 values are obtained from these dosage-activity curves using a software program (GraphPadPrizm).
# B-Raf (V600E)-kinase, sequence (P15056 whole entry V600E): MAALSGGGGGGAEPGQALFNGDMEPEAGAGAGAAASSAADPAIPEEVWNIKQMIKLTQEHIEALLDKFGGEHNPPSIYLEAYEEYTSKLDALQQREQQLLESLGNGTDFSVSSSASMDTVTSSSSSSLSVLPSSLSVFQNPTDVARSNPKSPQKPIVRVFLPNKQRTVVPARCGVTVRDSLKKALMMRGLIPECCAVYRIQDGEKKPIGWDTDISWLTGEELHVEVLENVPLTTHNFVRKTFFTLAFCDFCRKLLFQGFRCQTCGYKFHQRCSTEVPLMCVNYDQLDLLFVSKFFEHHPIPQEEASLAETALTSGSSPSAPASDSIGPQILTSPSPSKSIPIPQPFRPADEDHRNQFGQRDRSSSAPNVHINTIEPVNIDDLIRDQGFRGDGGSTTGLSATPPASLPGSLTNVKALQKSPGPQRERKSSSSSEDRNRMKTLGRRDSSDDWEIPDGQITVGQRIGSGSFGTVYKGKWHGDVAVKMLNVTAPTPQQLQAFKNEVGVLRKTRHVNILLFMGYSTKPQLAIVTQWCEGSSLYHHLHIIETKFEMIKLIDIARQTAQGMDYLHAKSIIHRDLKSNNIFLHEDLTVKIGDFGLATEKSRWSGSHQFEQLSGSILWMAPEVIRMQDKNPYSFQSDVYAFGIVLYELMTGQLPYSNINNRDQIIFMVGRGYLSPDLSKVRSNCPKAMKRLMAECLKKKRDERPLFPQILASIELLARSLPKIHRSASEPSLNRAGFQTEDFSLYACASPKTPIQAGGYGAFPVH
row,SMILES,IC50 [nM]
1,Cc1ccc(C(=O)Nc2ccc(C#N)c(C(F)(F)F)c2)cc1Nc1ncnc2cnc(N3CCN(C)CC3)nc12 [III-311],2

# Same assay, conditions: B-RAF (V600E) kinase test, 250 μM ATP
row,SMILES,IC50 [nM]
1,Cc1ccc(C(=O)NCc2ccc(C(C)(C)C)cc2)cc1Nc1ncnc2cnc(N3CCOCC3)nc12 [III-302],115
2,Cc1ccc(C(=O)Nc2cc(C(C)(C)C)n[nH]2)cc1Nc1ncnc2c(N)nc(N3CCN4CCCC4C3)nc12 (centres unmarked) [I-34],2
3,COc1ccc(NC(=O)c2ccc(C)c(Nc3ncnc4cnc(N(C)CC5CCCO5)nc34)c2)cc1C(F)(F)F (centres unmarked) [III-543],3
4,CNc1ncnc2c(Nc3cccc(NC(=O)c4cccc(C(C)(C)C#N)c4)c3)ncnc12 [VIII-3],13
5,Cc1ccc(NC(=O)c2cccc(C(F)(F)F)c2)cc1Nc1ncnc2c(N)nc(N3CCN(C4CCCC4)CC3)nc12 [II-9],24
6,CC(C)(C)c1cc(NC(=O)c2ccc(Cl)c(Nc3ncnc4cnc(N5CCOCC5)nc34)c2)no1 [III-75],1
7,CN1CCN(c2cc(NC(=O)c3ccc(F)c(Nc4ncnc5cnc(N6CCOCC6)nc45)c3)cc(C(F)(F)F)c2)CC1 [III-382],< 1
8,Cc1ccc(C(=O)Nc2cc(C(C)(C)C)on2)cc1Nc1ncnc2cnc(N3CCN(C(C)C)CC3)nc12 [III-492],2
9,Cc1ccc(NS(=O)(=O)CC(C)C)cc1Nc1ncnc2cnc(N3CCN(C)CC3)nc12 [IV-57],10000
10,COc1ccc(NC(=O)c2ccc(C(F)(F)F)c(Nc3ncnc4cnc(NCCN5CCOCC5)nc34)c2)cc1C(F)(F)F [III-53],318
11,Cc1ccc(C(=O)Nc2cc(C(C)(C)C)n[nH]2)cc1Nc1ncnc2cnc(N3CCN(CC(C)C)CC3)nc12 [III-447],13
12,Cc1ccc(C(=O)Nc2cc(C(C)(C)C)n[nH]2)cc1Nc1ncnc2cncnc12 [V-9],5
13,Cc1ccc(NC(=O)c2cccc(C(F)(F)F)c2)cc1Nc1ncnc2c(N)nc(N3CCN(CC4CCN(C)CC4)CC3)nc12 [II-14],4
14,COc1ccc(NC(=O)c2ccc(C(F)(F)F)c(Nc3ncnc4cnc(N5CCOCC5)nc34)c2)cc1C(F)(F)F [III-50],5
15,Cc1ccc(C(=O)NCc2cccc(C(F)(F)F)c2)cc1Nc1ncnc2cnc(N(C)CCN(C)C)nc12 [III-200],971
16,Cc1ccc(NC(=O)c2cccc(C(C)(C)C#N)c2)cc1Nc1ncnc2cnc(N(C)C3CCOC3)nc12 (centres unmarked) [IV-37],1
17,Cc1ccc(C(=O)NCc2ccc(C(C)(C)C)cc2)cc1Nc1ncnc2cnc(N3CC[C@@H](F)C3)nc12 [III-241],48
18,Cc1ccc(C(=O)Nc2cc(C(C)(C)C)n[nH]2)cc1Nc1ncnc2c(N)nc(N3CCN(CC4CCCO4)CC3)nc12 (centres unmarked) [I-38],6
19,COc1ccc(NC(=O)c2ccc(C)c(Nc3ncnc4cnc(N5CCN(C6CC6)CC5)nc34)c2)cc1C(F)(F)F [III-433],7
20,Cc1ccc(C(=O)Nc2cc(N3CCCN(C)CC3)cc(C(F)(F)F)c2)cc1Nc1ncnc2cnc(N3CC[C@H](F)C3)nc12 [III-458],1

row,SMILES,IC50 [nM]
1,CC(C)(C)c1cc(NC(=O)c2ccc(Cl)c(Nc3ncnc4cnc(N5CCCCC5)nc34)c2)no1 [III-73],4
2,Cc1ccc(C(=O)NCc2cccc(C(F)(F)F)c2)cc1Nc1ncnc2cnc(N3CCOCC3)nc12 [III-324],55
3,CC(C)(C)c1cc(NC(=O)c2ccc(C(F)(F)F)c(Nc3ncnc4cnc(N5CCCC5)nc34)c2)no1 [III-64],> 1000
4,Cc1ccc(C(=O)Nc2cc(C(C)(C)C)on2)cc1Nc1ncnc2cnc(N(C)CC3CCCCO3)nc12 (centres unmarked) [III-480],4
5,Cc1ccc(C(=O)Nc2cccc(C(F)(F)F)c2)cc1Nc1ncnc2cnc(N3CCCC3)nc12 [III-266],1
6,Cc1ccc(NC(=O)c2cccc(C(F)(F)F)c2)cc1Nc1ncnc2c(N)nc(N3CCNCC3)nc12 [II-19],9
7,Cc1ccc(NC(=O)c2cc(N3CCN(C)CC3)cc(C(F)(F)F)c2)cc1Nc1ncnc2cnc(N(C)CCCN(C)C)nc12 [IV-23],4
8,Cc1ccc(C(=O)Nc2cccc(S(=O)(=O)N(C)C)c2)cc1Nc1ncnc2cnc(N3CCCC3)nc12 [III-274],3
9,COc1ccc(NC(=O)c2ccc(C)c(N(C)c3ncnc4cnc(N5CC[C@H](F)C5)nc34)c2)cc1C(F)(F)F [III-587],65
10,Cc1ccc(C(=O)Nc2cccc(C(F)(F)F)c2)cc1Nc1ncnc2c(N)nc(N3CCN(C4CCCC4)CC3)nc12 [I-57],< 1
11,COCCN(C)c1ncc2ncnc(Nc3cc(C(=O)Nc4cc(OCCN(C)C)cc(C(F)(F)F)c4)ccc3C)c2n1 [III-141],2
12,COc1ccc(C(=O)Nc2ccc(C)c(Nc3ncnc4cnc(N(C)C)nc34)c2)cc1C(F)(F)F [IV-15],3
13,Cc1ccc(C(=O)Nc2cc(C(F)(F)F)ccn2)cc1Nc1ncnc2cnc(N3CCCN(C)CC3)nc12 [III-283],3
14,Cc1ccc(C(=O)Nc2cccc(OC(F)(F)F)c2)cc1Nc1ncnc2cnc(N3CCN(C)CC3)nc12 [III-301],< 1
15,Cc1ccc(C(=O)Nc2cccc(S(=O)(=O)N(C)C)c2)cc1Nc1ncnc2cnc(N3CCOCC3)nc12 [III-320],2
16,COc1c(CNC(C)C)cc(C(F)(F)F)cc1NC(=O)c1ccc(C)c(Nc2ncnc3cnc(N4CCOCC4)nc23)c1 [III-540],5
17,Cc1ccc(C(=O)n2nc(C(C)(C)C)cc2N)cc1Nc1ncnc2cnc(NC3CCOC3)nc12 (centres unmarked) [III-354],20
18,CN1CCN(c2nc(N)c3ncnc(Nc4cccc(C(=O)Nc5cccc(C(F)(F)F)c5)c4)c3n2)CC1 [I-19],57
19,Cc1ccc(C(=O)Nc2nnc(C(F)(F)F)s2)cc1Nc1ncnc2cnc(N3CCCN(C)CC3)nc12 [III-282],1400
20,COc1cc(NC(=O)c2ccc(C)c(Nc3ncnc4c(N)nc(N5CCN(C)CC5)nc34)c2)cc(C(F)(F)F)c1 [I-54],5

row,SMILES,IC50 [nM]
1,COc1ccc(NC(=O)c2ccc(Cl)c(Nc3ncnc4cnc(N5CCCN(C)CC5)nc34)c2)cc1C(F)(F)F [III-7],1
2,Cc1ccc(NC(=O)c2cccc(C(F)(F)F)c2)cc1Nc1ncnc2c(N)nc(N3CCCN(c4ncccn4)CC3)nc12 [II-16],45
3,CN1CCN(c2cc(NC(=O)c3ccc(F)c(Nc4ncnc5cnc(NC6CCOC6)nc45)c3)cc(C(F)(F)F)c2)CC1 (centres unmarked) [III-388],< 1
4,Cc1ccc(C(=O)Nc2cccc(S(=O)(=O)N(C)C)c2)cc1Nc1ncnc2cnc(N3CCN(C)CC3)nc12 [III-303],7
5,Cc1ccc(C(=O)Nc2cccc(C(F)(F)F)c2)cc1Nc1ncnc2c(N)nc(N3CCNCC3)nc12 [I-66],< 1
6,CC1=Nc2ccc(NC(=O)c3ccc(C)c(Nc4ncnc5cnc(N6CCC(CN7CCCC7)CC6)nc45)c3)cc2C1(C)C [III-601],6
7,Cc1ccc(C(=O)Nc2cc(CN3CCCC3)cc(C(F)(F)F)c2)cc1Nc1ncnc2cnc(N3CC[C@H](F)C3)nc12 [III-459],2
8,COc1ccc(NC(=O)c2ccc(C(F)(F)F)c(Nc3ncnc4cnc(NCCN(C)C)nc34)c2)cc1C(F)(F)F [III-52],2230
9,CCN1CCN(c2cc(NC(=O)c3ccc(C)c(Nc4ncnc5cnc(N(C)CCOC)nc45)c3)cc(C(F)(F)F)c2)CC1 [III-470],2
10,CN(C)CCN(C)c1ncc2ncnc(Nc3cc(C(=O)Nc4cc(C(C)(C)C)on4)ccc3F)c2n1 [III-316],3
11,COc1ccc(NC(=O)c2ccc(C)c(Nc3ncnc4cnc(N5C[C@H]6C[C@@H]5CN6C)nc34)c2)cc1C(F)(F)F [III-431],3
12,Cc1ccc(C(=O)Nc2ccc(C(F)(F)F)cc2)cc1Nc1ncnc2c(N)nc(N3CCNCC3)nc12 [I-4],7
13,Cc1ccc(C(=O)Nc2cccc(C(C)(C)C)c2)cc1Nc1ncnc2cnc(N3CCCCC3)nc12 [III-248],2
14,COc1ccc(NC(=O)c2ccc(C)c(Nc3ncnc4cnc(N5CCCC5)nc34)c2)cc1C(F)(F)F [III-445],2
15,COc1ccc(NC(=O)c2ccc(Cl)c(Nc3ncnc4cnc(NCCCN5CCOCC5)nc34)c2)cc1C(F)(F)F [III-11],4
16,Cc1ccc(NC(=O)c2cccc(C(C)(C)C#N)c2)cc1Nc1ncnc2cnc(N3CCN(C)CC3)nc12 [IV-7],1
17,COc1ccc(NC(=O)c2ccc(F)c(Nc3ncnc4cnc(NCCN5CCOCC5)nc34)c2)cc1C(F)(F)F [III-40],2
18,CCN1CCN(c2cc(NC(=O)c3ccc(C)c(Nc4ncnc5c(N)nc(N6CCOCC6)nc45)c3)cc(C(F)(F)F)c2)CC1 [I-77],2

# Reference: patent US8653087B2, “Pyrido [5, 4-D] pyrimidines as cell proliferation inhibitors” (Boehringer Ingelheim International GmbH, priority 2008, dated 2014)
